Results: US9540343B2 (Gilead Sciences, Inc., priority 2011, dated 2017)

Tests used:
in vitro = details: human, uninfected MT-4 cells, CC50 (nM), same protocol as Test A, CellTiter-Glo
Outline: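 Cytoprotection read-out: CellTiter-Glo chemiluminescence after 5 days at 37 °C of HIV-IIIb-infected MT-4 cells (m.o.i. 0.003) with compound in 10-point 3-fold dilutions, quadruplicate, 10% FBS. Cytotoxicity (CC50) measured identically without virus.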

HIV-IIIb = assay: Test A: Antiviral assay in MT4 cells; assay type: cell-based, HIV-1; details: MT-4 cells infected with HIV-IIIb, 5 days, CellTiter-Glo; for inhibition at 2 µM: Human immunodeficiency virus 1, IIIB, MT4, 120 h, read-out: % inhibition at 2 μM, percent inhibition of virus-induced cell killing, from dose response curve at 2 uM drug

## NC(=O)c1cc(-c2cccnc2[C@H](Cc2cc(F)cc(F)c2)NC(=O)Cn2nc3c(c2C(F)F)CC2CC32)ccc1F (stereo partly drawn) [Example 160, 5-(2-((1S)-1-(2-(3-(difluoromethyl)-4,4-a,5,5a-tetrahydro-2H-cyclopropa[4,5]cyclopenta[1,2-c]pyrazol-2-yl)acetamido)-2-(3,5-difluorophenyl)ethyl)pyridin-3-yl)-2-fluorobenzamide]
In vitro
  CC50 at 5 days: 29300 nM
HIV-IIIb
  inhibition at 2 µM: 45%

## COc1nc2c(CC(=O)N[C@@H](Cc3cc(F)cc(F)c3)c3ncccc3-c3cccc(C(N)=O)c3)c[nH]c2cc1C [Example 360E, (S)-3-(2-(2-(3,5-difluorophenyl)-1-(2-(5-methoxy-6-methyl-1H-pyrrolo[3,2-b]pyridin-3-yl)acetamido)ethyl)pyridin-3-yl)benzamide]
In vitro
  CC50 at 5 days: 13100 nM
HIV-IIIb
  inhibition at 2 µM: 55%

## CCC(C(=O)N[C@@H](Cc1cc(F)cc(F)c1)c1ncccc1-c1ccc(F)c(C(N)=O)c1)n1ccnc1C(C)C (single isomer, unassigned) [Example 558B]
In vitro
  CC50 at 5 days: > 53200 nM
HIV-IIIb; percent inhibition of virus-induced cell killing, from dose response curve at 2 uM drug
  % inhibition at 2 μM: 3%

## N#Cc1nn(CC(=O)N[C@@H](Cc2cc(F)cc(F)c2)c2ncccc2-c2ccc(F)c(C(N)=O)c2)cc1C1CC1 [Example 337, (S)-5-(2-(1-(2-(3-cyano-4-cyclopropyl-1H-pyrazol-1-yl)acetamido)-2-(3,5-difluorophenyl)ethyl)pyridin-3-yl)-2-fluorobenzamide]
In vitro
  CC50 at 5 days: 27900 nM
HIV-IIIb
  inhibition at 2 µM: 20%

## NC(=O)c1cc(-c2cccnc2[C@H](Cc2cc(F)cc(F)c2)NC(=O)[C@@H]2C[C@@H](O)CN2)ccc1F [Example 178, (2S,4R)—N—((S)-1-(3-(3-carbamoyl-4-fluorophenyl)pyridin-2-yl)-2-(3,5-difluorophenyl)ethyl)-4-hydroxypyrrolidine-2-carboxamide]
In vitro
  CC50 at 5 days: > 53000 nM
HIV-IIIb
  inhibition at 2 µM: 0%

## O=C(Cn1nc(C(F)(F)F)c2c1CCCC2)N[C@@H](Cc1cc(F)cc(F)c1)c1ncccc1-c1ccc(S(=O)(=O)N2CCOCC2)cc1 [Example 105, (S)—N-(2-(3,5-difluorophenyl)-1-(3-(4-(morpholinosulfonyl)phenyl)pyridin-2-yl)ethyl)-2-(3-(trifluoromethyl)-4,5,6,7-tetrahydro-1H-indazol-1-yl)acetamide]
In vitro
  CC50 at 5 days: 9080 nM
HIV-IIIb
  inhibition at 2 µM: 99%

## NC(=O)c1cc(-c2cccnc2[C@H](Cc2cc(F)cc(F)c2)NC(=O)Cn2ccc3ccc4ccccc4c32)ccc1F [Example 56B, (S)-5-(2-(1-(2-(1H-benzo[g]indol-1-yl)acetamido)-2-(3,5-difluorophenyl)ethyl)pyridin-3-yl)-2-fluorobenzamide]
In vitro
  CC50 at 5 days: 18900 nM
HIV-IIIb
  inhibition at 2 µM: 4%

## O=C(Cc1c[nH]c2ccc(F)cc12)N[C@@H](Cc1cc(F)cc(F)c1)c1ncccc1-c1cnc2ccccc2c1 [Example 111, (S)—N-(2-(3,5-difluorophenyl)-1-(3-(quinolin-3-yl)pyridin-2-yl)ethyl)-2-(5-fluoro-1H-indol-3-yl)acetamide]
In vitro
  CC50 at 5 days: 9950 nM
HIV-IIIb
  inhibition at 2 µM: 41%

## NC(=O)c1cc(-c2cccnc2[C@H](Cc2cc(F)cc(F)c2)NC(=O)Cn2nc(C(F)(F)F)cc2C2CC2)ccc1F [Example 138, (S)-5-(2-(1-(2-(5-cyclopropyl-3-(trifluoromethyl)-1H-pyrazol-1-yl)acetamido)-2-(3,5-difluorophenyl)ethyl)pyridin-3-yl)-2-fluorobenzamide]
In vitro
  CC50 at 5 days: 24500 nM
HIV-IIIb
  inhibition at 2 µM: 30%

## CC(C)(C)OC(=O)N1C[C@@H](Oc2ccccc2)C[C@H]1C(=O)N[C@@H](Cc1cc(F)cc(F)c1)c1ncccc1-c1ccc(F)c(C(N)=O)c1 [Example 161, (2S,4S)-tert-butyl 2-((S)-1-(3-(3-carbamoyl-4-fluorophenyl)pyridin-2-yl)-2-(3,5-difluorophenyl)ethylcarbamoyl)-4-phenoxypyrrolidine-1-carboxylate]
In vitro
  CC50 at 5 days: 9310 nM
HIV-IIIb
  inhibition at 2 µM: 0%

## O=C(Cn1nc(C(F)F)c2c1C(F)(F)C1CC21)N[C@@H](Cc1cc(F)cc(F)c1)c1ncccc1-c1cccc2ncccc12 (stereo partly drawn) [Example 420, (S)—N-(1-(3-(isoquinole-5-yl)-pyridin-2-yl)-2-(3,5-difluorophenyl)ethyl)-2-(3-(difluoromethyl)-5,6-dihydro-4,5-(methano)-6,6-difluoro-cyclopenta[c]pyrazol-1(4H)-yl)acetamide]
In vitro
  CC50 at 5 days: 18700 nM
HIV-IIIb
  inhibition at 2 µM: 110%

## O=C(Cc1c[nH]c2ccc(C(F)(F)F)cc12)N[C@@H](Cc1cc(F)cc(F)c1)c1ncccc1-c1ccc(Cl)cc1 [Example 513, (S)—N-(1-(3-(4-chlorophenyl)pyridin-2-yl)-2-(3,5-difluorophenyl)ethyl)-2-(5-(trifluoromethyl)-1H-indol-3-yl)acetamide]
In vitro
  CC50 at 5 days: 10700 nM
HIV-IIIb
  inhibition at 2 µM: 63%

## NC(=O)c1cc(-c2cccnc2[C@H](Cc2cc(F)cc(F)c2)NC(=O)Cn2ncc3ccc(O)cc32)ccc1F [Example 588, (S)-5-(2-(2-(3,5-difluorophenyl)-1-(2-(6-hydroxy-1H-indazol-1-yl)acetamido)ethyl)pyridin-3-yl)-2-fluorobenzamide]
In vitro
  CC50 at 5 days: 21500 nM
HIV-IIIb
  inhibition at 2 µM: 2%

## NC(=O)c1cc(-c2cccnc2[C@H](Cc2cc(F)cc(F)c2)NC(=O)Cn2nc(C(F)(F)F)c3c2C(=O)C2CC32)ccc1F (stereo partly drawn) [Example 561B, 5-(2-((1S)-2-(3,5-difluorophenyl)-1-(2-(5-oxo-3-(trifluoromethyl)-3b,4,4a,5-tetrahydro-1H-cyclopropa[3,4]cyclopenta[1,2-c]pyrazol-1-yl)acetamido)ethyl)pyridin-3-yl)-2-fluorobenzamide]
In vitro
  CC50 at 5 days: 29000 nM
HIV-IIIb
  inhibition at 2 µM: 8%

## NC(=O)c1cc(-c2cccnc2[C@H](Cc2cc(F)cc(F)c2)NC(=O)Cn2nc(C(F)(F)F)c3c2CC(=O)C3)ccc1F [Example 237, (S)-5-(2-(2-(3,5-difluorophenyl)-1-(2-(5-oxo-3-(trifluoromethyl)-5,6-dihydrocyclopenta[c]pyrazol-1(4H)-yl)acetamido)ethyl)pyridin-3-yl)-2-fluorobenzamide]
In vitro
  CC50 at 5 days: 38200 nM
HIV-IIIb
  inhibition at 2 µM: 1%

## NC(=O)c1cc(-c2cccnc2[C@H](Cc2cc(F)cc(F)c2)NC(=O)Cn2nc(C(F)(F)F)c3c2CCNC3=O)ccc1F [Example 270C, (S)-5-(2-(2-(3,5-difluorophenyl)-1-(2-(4-oxo-3-(trifluoromethyl)-4,5,6,7-tetrahydro-1H-pyrazolo[4,3-c]pyridin-1-yl)acetamido)ethyl)pyridin-3-yl)-2-fluorobenzamide]
In vitro
  CC50 at 5 days: > 53200 nM
HIV-IIIb
  inhibition at 2 µM: 1%

## O=C(Cn1nc(C(F)F)c2c1C(F)(F)C1CC21)N[C@@H](Cc1cc(F)cc(F)c1)c1ncncc1-c1cccc2cnccc12 (stereo partly drawn) [Example 185C, 2-(3-(difluoromethyl)-5,5-difluoro-3b,4,4a,5-tetrahydro-1H-cyclopropa[3,4]cyclopenta[1,2-c]pyrazol-1-yl)-N—((S)-2-(3,5-difluorophenyl)-1-(5-(isoquinolin-5-yl)pyrimidin-4-yl)ethyl)acetamide]
In vitro
  CC50 at 5 days: 26500 nM
HIV-IIIb
  inhibition at 2 µM: 94%

## COC(=O)c1c2c(nn1CC(=O)N[C@@H](Cc1cc(F)cc(F)c1)c1ncccc1-c1ccc(F)c(C(N)=O)c1)COC2 [Example 453, (S)-methyl 2-(2-((1-(3-(3-carbamoyl-4-fluorophenyl)pyridin-2-yl)-2-(3,5-difluorophenyl)ethyl)amino)-2-oxoethyl)-4,6-dihydro-2H-furo[3,4-c]pyrazole-3-carboxylate]
In vitro
  CC50 at 5 days: > 53200 nM
HIV-IIIb
  inhibition at 2 µM: 3%
